The test system of one assay is A-375. Briefly: Antiproliferative activity against human A375 cells assessed as reduction in cell growth at 8 uM incubated for 72 hrs by CCK-8 assay relative to control. The assay is classed as functional. To be noted: A-375, 72 h.
For assay [1], the system named is HeLa. Put plainly: Antiproliferative activity against human HeLa cells assessed as reduction in cell growth at 8 uM incubated for 72 hrs by CCK-8 assay relative to control. The assay is classed as functional. On the technique in general: Tetrazolium assays rely on reduction of a dye to a coloured formazan, in cell work by metabolically active cells.
Assay [2] relates to SMMC-7721. Put plainly: Cell cycle arrest in human SMMC7721 cells assessed as accumulation at G0/G1 phase at 0.25 uM incubated for 48 hrs by propidium iodide staining based flow cytometry (Rvb=77%). The assay is classed as functional. In general terms: A flow cytometer gives signals particle by particle.
The subject of assay [3] is SMMC-7721. Briefly: Cell cycle arrest in human SMMC7721 cells assessed as accumulation at G2/M phase at 1 uM incubated for 48 hrs by propidium iodide staining based flow cytometry (Rvb=16.17%). The assay is classed as functional.
Assay [4] deals with HeLa. Briefly: Antiproliferative activity against human HeLa cells assessed as reduction in cell growth at 2 uM incubated for 72 hrs by CCK-8 assay relative to control. It counts as functional.
Assay [5] deals with SMMC-7721. Briefly: Induction of apoptosis in human SMMC7721 cells assessed as early apoptotic cells at 4 uM incubated for 48 hrs by Annexin-V-FITC/propidium iodide staining based flow cytometry (Rvb=2.88%). It counts as functional.
Assay [6] has as its system SMMC-7721. Briefly: Antiproliferative activity against human SMMC7721 cells assessed as reduction in cell growth incubated for 72 hrs by CCK-8 assay. It counts as functional, cell-based. To be noted: SMMC-7721, 72 h.
The subject of assay [7] is HCT-116. Briefly: Antiproliferative activity against human HCT116 cells assessed as reduction in cell growth at 8 uM incubated for 72 hrs by CCK-8 assay relative to control. The conditions noted are these: HCT-116, 72 h. The assay is classed as functional.
The test system of assay [8] is SMMC-7721. Briefly: Induction of apoptosis in human SMMC7721 cells assessed as late apoptotic cells at 1 uM incubated for 48 hrs by Annexin-V-FITC/propidium iodide staining based flow cytometry (Rvb=1.73%). It counts as functional.
Assay [9] concerns SMMC-7721. Briefly: Induction of apoptosis in human SMMC7721 cells incubated for 48 hrs by Annexin-V-FITC/propidium iodide staining based flow cytometry. It counts as functional, cell-based.
Assay [10] has as its system SMMC-7721. Briefly: Cell cycle arrest in human SMMC7721 cells assessed as accumulation at G0/G1 phase at 4 uM incubated for 48 hrs by propidium iodide staining based flow cytometry (Rvb=77%). It counts as functional.
A further assay addresses Histone deacetylase. Briefly: Inhibition of HDAC in human HeLa cell nuclear extract using fluor-de-lys-green as substrate preincubated for 10 mins followed by substrate addition and measured after 30 mins by fluorescence assay. The assay is classed as cell-based.
Assay [11] concerns SMMC-7721. Put plainly: Induction of apoptosis in human SMMC7721 cells assessed as viable cells at 0.25 uM incubated for 48 hrs by Annexin-V-FITC/propidium iodide staining based flow cytometry (Rvb=93.5%). It counts as functional. To be noted: SMMC-7721, 48 h, read-out: Activity.
Assay [12] concerns SMMC-7721. Put plainly: Cell cycle arrest in human SMMC7721 cells assessed as accumulation at G2/M phase at 0.25 uM incubated for 48 hrs by propidium iodide staining based flow cytometry (Rvb=16.17%). The assay is classed as functional.
The test system of assay [13] is SMMC-7721. Briefly: Induction of apoptosis in human SMMC7721 cells assessed as early apoptotic cells at 0.25 uM incubated for 48 hrs by Annexin-V-FITC/propidium iodide staining based flow cytometry (Rvb=2.88%). The assay is classed as functional.
Assay [14] has as its system SMMC-7721. Briefly: Cell cycle arrest in human SMMC7721 cells assessed as accumulation at S phase at 0.25 uM incubated for 48 hrs by propidium iodide staining based flow cytometry (Rvb=6.83%). It counts as functional.
The target in assay [15] is T1, Protein deacetylase HDAC6 (Homo sapiens, UniProt Q9UBN7).
T1 sequence (Q9UBN7 whole entry): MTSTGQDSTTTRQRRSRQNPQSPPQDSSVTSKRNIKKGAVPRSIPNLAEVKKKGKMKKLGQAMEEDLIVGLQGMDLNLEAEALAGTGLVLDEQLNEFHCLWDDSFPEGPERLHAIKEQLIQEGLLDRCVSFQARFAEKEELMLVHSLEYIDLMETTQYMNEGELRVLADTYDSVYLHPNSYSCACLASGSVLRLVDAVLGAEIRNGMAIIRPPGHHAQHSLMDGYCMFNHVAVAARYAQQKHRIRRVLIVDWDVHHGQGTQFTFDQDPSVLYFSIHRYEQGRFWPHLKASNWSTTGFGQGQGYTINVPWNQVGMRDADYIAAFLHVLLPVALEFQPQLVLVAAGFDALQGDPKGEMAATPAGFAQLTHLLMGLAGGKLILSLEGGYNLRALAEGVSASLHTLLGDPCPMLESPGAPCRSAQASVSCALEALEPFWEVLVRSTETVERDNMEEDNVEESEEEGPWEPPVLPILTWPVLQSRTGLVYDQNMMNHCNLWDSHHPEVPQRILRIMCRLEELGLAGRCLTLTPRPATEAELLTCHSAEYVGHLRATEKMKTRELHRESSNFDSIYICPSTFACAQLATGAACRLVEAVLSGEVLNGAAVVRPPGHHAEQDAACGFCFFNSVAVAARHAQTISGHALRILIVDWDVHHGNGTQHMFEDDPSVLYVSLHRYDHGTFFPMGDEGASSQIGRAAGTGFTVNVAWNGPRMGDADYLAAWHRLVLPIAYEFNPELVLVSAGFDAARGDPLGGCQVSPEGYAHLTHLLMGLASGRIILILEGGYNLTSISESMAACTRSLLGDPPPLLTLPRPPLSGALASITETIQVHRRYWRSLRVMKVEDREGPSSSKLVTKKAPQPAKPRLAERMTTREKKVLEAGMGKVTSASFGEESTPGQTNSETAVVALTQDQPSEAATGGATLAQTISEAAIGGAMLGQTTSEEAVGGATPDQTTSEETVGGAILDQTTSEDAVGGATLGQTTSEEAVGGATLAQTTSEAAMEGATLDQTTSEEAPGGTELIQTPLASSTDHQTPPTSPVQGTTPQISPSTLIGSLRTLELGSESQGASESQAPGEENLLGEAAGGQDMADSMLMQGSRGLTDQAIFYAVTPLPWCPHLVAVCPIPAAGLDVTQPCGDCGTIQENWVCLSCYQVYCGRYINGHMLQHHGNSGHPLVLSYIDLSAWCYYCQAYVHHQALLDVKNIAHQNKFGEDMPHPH
Put plainly: Inhibition of human recombinant His-tagged HDAC6 expressed in baculovirus infected insect cells using FLUOR DE LYS SIRT1 as substrate preincubated for 10 mins followed by substrate addition and measured after 30 mins by fluorescence method.

In assay [16] the test system is HeLa. Briefly: Antiproliferative activity against human HeLa cells assessed as reduction in cell growth incubated for 72 hrs by CCK-8 assay. The assay is classed as functional, cell-based.
The test system of assay [17] is HCT-116. Put plainly: Antiproliferative activity against human HCT116 cells assessed as reduction in cell growth at 2 uM incubated for 72 hrs by CCK-8 assay relative to control. It counts as functional. The conditions noted are these: HCT-116, 72 h.
Assay [18] relates to SMMC-7721. Briefly: Antiproliferative activity against human SMMC7721 cells assessed as reduction in cell growth at 2 uM incubated for 72 hrs by CCK-8 assay relative to control. The assay is classed as functional. The conditions noted are these: SMMC-7721, 72 h.
Assay [19] concerns HCT-116. Put plainly: Antiproliferative activity against human HCT116 cells assessed as reduction in cell growth incubated for 72 hrs by CCK-8 assay. It counts as functional, cell-based. The conditions noted are these: HCT-116, 72 h.
The test system of assay [20] is SMMC-7721. Briefly: Antiproliferative activity against human SMMC7721 cells assessed as reduction in cell growth at 8 uM incubated for 72 hrs by CCK-8 assay relative to control. It counts as functional. The conditions noted are these: SMMC-7721, 72 h.

The inhibition is the change of the read-out against control, counted positive when it falls. Broadly, the IC50 is the midpoint of a concentration-inhibition curve.

Take `Cn1c(SCc2ccc(C(=O)Nc3ccccc3N)cc2)nc2cc(Br)ccc2c1=O`: the inhibition at 8 µM in the assay on A-375 turned out to be 72.9%; in the assay on HeLa [1], 72.8%; with HCT-116 [7], 88.4%; in the assay with SMMC-7721 [20], 70.6%. The Activity with SMMC-7721 [2] is 65.59%; in the assay on SMMC-7721 [3] it was 25.37%; in the assay on SMMC-7721 [5], 6.61%; with SMMC-7721 [8], 33.8%; with SMMC-7721 [9] it was “Dose-dependent effect”; with SMMC-7721 [10], 56.05%. For the same compound, the values for the Activity with SMMC-7721 [12], in the assay with SMMC-7721 [13] and in the assay with SMMC-7721 [14] were 18.88%, 6.01% and 15.53%, respectively. In addition, the inhibition at 2 µM in the assay on HeLa [4] was 32.3%; in the assay on HCT-116 [17], 72.4%; in the assay with SMMC-7721 [18], 35.6%. For the same compound, the IC50 with SMMC-7721 [6] was 5580 nM; on Histone deacetylase, 4.94 µM; in assay [15], over 40 µM; with HeLa [16] it was 3970 nM; with HCT-116 [19], 1220 nM. The viability at 0.25 µM in the assay with SMMC-7721 [11] came out at 79.4%.

As for `CCn1c(SCc2ccc(/C=C/C(=O)Nc3ccccc3N)cc2)nc2cc(OC)ccc2c1=O`, the inhibition at 8 µM in the assay with A-375 came to 89.5%; in the assay with HeLa [1] it was 70.8%; in the assay with HCT-116 [7] it was 80.5%; in the assay with SMMC-7721 [20], 79.7%. For the same compound, the Activity was 61.58% in the assay with SMMC-7721 [2]; 33.16% in the assay with SMMC-7721 [3]; 10.5% in the assay on SMMC-7721 [5]; 28.8% with SMMC-7721 [8]; “Dose-dependent effect” in the assay with SMMC-7721 [9]; 53.62% in the assay with SMMC-7721 [10]. In addition, the Activity in the assay on SMMC-7721 [12] came out at 17.67%; in the assay on SMMC-7721 [13], 6.55%; with SMMC-7721 [14], 20.75%. In addition, the inhibition at 2 µM with HeLa [4] came out at 24%; in the assay on HCT-116 [17], 67.3%; in the assay with SMMC-7721 [18], 56.8%. Further, the IC50 is 60 nM in the assay with SMMC-7721 [6], over 40 µM in assay [15], 3410 nM in the assay with HeLa [16] and 1430 nM with HCT-116 [19]. Besides, in the assay with SMMC-7721 [11], the viability at 0.25 µM stood at 79.3%.

As for `COc1ccc2c(=O)n(-c3ccccc3Cl)c(SCc3ccc(C(=O)Nc4ccccc4N)cc3)nc2c1`, the inhibition at 8 µM is 78.7% in the assay on A-375, 82.7% in the assay on HeLa [1], 83.3% in the assay on HCT-116 [7] and 84.1% in the assay with SMMC-7721 [20]. In addition, the Activity was 48.75% with SMMC-7721 [2]; 37.07% with SMMC-7721 [3]; 5.54% in the assay with SMMC-7721 [5]; 19.1% in the assay on SMMC-7721 [8]; “Dose-dependent effect” in the assay with SMMC-7721 [9]; 27.52% with SMMC-7721 [10]. Moreover, the Activity in the assay with SMMC-7721 [12] turned out to be 31.29%; in the assay with SMMC-7721 [13], 15.9%; in the assay with SMMC-7721 [14], 19.96%. The figures for the inhibition at 2 µM in the assay on HeLa [4], in the assay on HCT-116 [17] and in the assay with SMMC-7721 [18] were 54.4%, 43.7% and 50.4%, respectively. Moreover, the IC50 in the assay on SMMC-7721 [6] is 2160 nM; on Histone deacetylase, 0.83 µM; in [15] it was over 40 µM; with HeLa [16], 1320 nM; with HCT-116 [19], 2380 nM. The viability at 0.25 µM in the assay on SMMC-7721 [11] turned out to be 68.3%.

As to `COc1ccc2c(=O)n(C)c(SCc3ccc(C(=O)Nc4ccccc4N)cc3)nc2c1`, the inhibition at 8 µM is 89.4% with A-375, 87% in the assay with HeLa [1], 91.8% in the assay on HCT-116 [7] and 79.3% in the assay with SMMC-7721 [20]. Further, the Activity is 67.11% in the assay on SMMC-7721 [2]; 22.56% in the assay with SMMC-7721 [3]; 13% in the assay with SMMC-7721 [5]; 45.4% in the assay on SMMC-7721 [8]; “Dose-dependent effect” with SMMC-7721 [9]; 46.09% with SMMC-7721 [10]. Also, the Activity is 11.67% in the assay on SMMC-7721 [12], 9.27% in the assay with SMMC-7721 [13] and 22.23% with SMMC-7721 [14]. The inhibition at 2 µM was 57.5% with HeLa [4], 73.1% with HCT-116 [17] and 68.8% in the assay with SMMC-7721 [18]. The half-inhibitory concentration (IC50) was 30 nM in the assay on SMMC-7721 [6]; 0.99 µM against Histone deacetylase; over 40 µM in [15]; 1490 nM in the assay with HeLa [16]; 750 nM in the assay on HCT-116 [19]. Moreover, the viability at 0.25 µM with SMMC-7721 [11] amounted to 66%.
